This note sets out measurements from patent publication US20250230193A1, “CYCLIC COMPOUND HAVING SELECTIVE KRAS INHIBITORY EFFECT ON HRAS AND NRAS” (CHUGAI SEIYAKU KABUSHIKI KAISHA, priority 2022, published 2025).

Structures are written as SMILES. Where a SMILES comes first, the peptide text is derived from it. Bridges are numbered along the chain shown (N, C = ends). [ ]: non-standard residue; d: D form. The star is where a group is joined. hPhe(3-Cl-4-CF3) = N[C@@H](CCc1ccc(C(F)(F)F)c(Cl)c1)C(=O)O; NPrPhe(4-CF3) = CCCN[C@@H](Cc1ccc(C(F)(F)F)cc1)C(=O)O; Morpholine(3S-CO) = O=C(O)[C@@H]1COCCN1; NMeGly(cPent) = CN[C@H](C(=O)O)C1CCCC1; NMeD = CN[C@@H](CC(=O)O)C(=O)O; NMeL = CN[C@@H](CC(C)C)C(=O)O; Morpholide = C1CN(*)CCO1; Ac5c = NC1(C(=O)O)CCCC1; Sar = CNCC(=O)O

The target in assay [1] is GDP-bound NRAS wild-type protein (Homo sapiens, UniProt P01111). As to the kind of experiment: Binding to NRAS by surface plasmon resonance (SPR), Single Cycle Kinetics. The conditions noted are these: SPR. In general terms: Surface plasmon resonance follows binding to a sensor surface in real time, without labels.
Chain of GDP-bound NRAS wild-type protein (P01111 whole entry): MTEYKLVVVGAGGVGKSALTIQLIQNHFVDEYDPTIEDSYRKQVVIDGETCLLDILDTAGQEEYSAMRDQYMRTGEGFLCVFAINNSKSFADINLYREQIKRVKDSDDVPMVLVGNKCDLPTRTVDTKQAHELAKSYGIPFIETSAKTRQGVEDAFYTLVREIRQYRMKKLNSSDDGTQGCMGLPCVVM
Assay [2] has as its target GDP-bound HRAS wild-type protein (Homo sapiens, UniProt P01112). As to the kind of experiment: Binding to HRAS by surface plasmon resonance (SPR), Single Cycle Kinetics. Particulars: SPR.
[3] abbreviates: GDP-bound NRAS wild-type vs GDP-bound KRAS wild-type.
The mark [4] stands for this setting: GDP-bound HRAS wild-type vs GDP-bound KRAS wild-type.
Where [5] appears, read: KD ratio, GDP-bound NRAS wild-type vs GDP-bound KRAS wild-type.
Where [6] appears, read: KD ratio, GDP-bound HRAS wild-type vs GDP-bound KRAS wild-type.

Chain of GDP-bound HRAS wild-type protein (P01112 whole entry): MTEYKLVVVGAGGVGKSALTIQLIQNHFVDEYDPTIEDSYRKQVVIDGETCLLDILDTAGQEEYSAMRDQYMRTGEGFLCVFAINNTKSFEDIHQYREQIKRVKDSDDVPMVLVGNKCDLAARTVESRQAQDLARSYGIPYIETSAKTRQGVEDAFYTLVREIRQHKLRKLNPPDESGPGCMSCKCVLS

With `CCO[C@@H]1C[C@H]2C(=O)NC3(CCC3)C(=O)N(C)[C@@H](C3CCCC3)C(=O)N(C)[C@H](C(=O)N(C)C)CC(=O)N(C)[C@@H](CC(C)(C)C)C(=O)N[C@@H]([C@@H](C)CC)C(=O)N(C)CC(=O)N(C)[C@H]3CCCCN(C3=O)[C@@H](Cc3ccc(C(F)(F)F)cc3)C(=O)N(C)CC(=O)N[C@@H](CCc3cc(F)c(C(F)(F)F)c(F)c3)C(=O)N2C1` [PP0699], the “NRAS/KRAS (ratio of KD value with respect to GDP-bound NRAS wild-type protein to KD value with respect to KRAS)” value in assay [1] (KD ratio NRAS/KRAS) was “C (A compound having a KD ratio of 0.1 or more and less than 3 is denoted as C)”. For the same compound, the “HRAS/KRAS (ratio of KD value with respect to GDP-bound HRAS wild-type protein to KD value with respect to KRAS)” value in assay [2] (KD ratio HRAS/KRAS) was “C (A compound having a KD ratio of 0.1 or more and less than 3 is denoted as C)”.
For the compound `CCOC[C@H]1C(=O)N[C@@H]([C@@H](C)CC)C(=O)N(C)CC(=O)N(C)[C@H]2C/C=C\CCN(C2=O)[C@@H](Cc2ccc(C)cc2)C(=O)N(C)CC(=O)N[C@@H](CCc2cc(F)c(C(F)(F)F)c(F)c2)C(=O)N2C[C@H](OCC)C[C@H]2C(=O)NC2(CC(C)(C)C2)C(=O)N(C)[C@@H](C2CCCC2)C(=O)N(C)[C@H](C(=O)N(CC)CC)CC(=O)N1C` [PP2408], the “NRAS/KRAS (ratio of KD value with respect to NRAS to KD value with respect to KRAS)” value in assay [1] (setting [3]) was “A (a compound having 10 or more and less than 20 is denoted as A)”. Further, in assay [2] (setting [4]), the “HRAS/KRAS (ratio of KD value with respect to HRAS to KD value with respect to KRAS)” value is “A (a compound having 10 or more and less than 20 is denoted as A)”.
Turning to `C=CCN1CC(=O)N(C)[C@H]2C/C=C\CCN(C2=O)[C@@H](Cc2ccc(C)cc2)C(=O)N(C)CC(=O)N[C@@H](CCc2ccc(C(F)(F)F)c(OC)c2)C(=O)N2C[C@H](OCC)C[C@H]2C(=O)NC2(CC(C)(C)C2)C(=O)N(C)[C@@H](C2CCCC2)C(=O)N(C)[C@H](C(=O)N(C)C)CC(=O)N(C)[C@@H](CCC)C(=O)N[C@@H]([C@@H](C)CC)C1=O` [PP2098], the “NRAS/KRAS (ratio of KD value with respect to NRAS to KD value with respect to KRAS)” value in assay [1] (setting [3]) is “A (a compound having 10 or more and less than 20 is denoted as A)”. The “HRAS/KRAS (ratio of KD value with respect to HRAS to KD value with respect to KRAS)” value in assay [2] (setting [4]) was “A (a compound having 10 or more and less than 20 is denoted as A)”.
For the compound `CC[C@H](C)[C@@H]1NC(=O)[C@H](CC)N(C)C(=O)C[C@@H](C(=O)N(C)C)N(C)C(=O)[C@H](C2CCCC2)N(C)C(=O)C2(CCC2)NC(=O)[C@H](COCCC(C)C)N(C)C(=O)[C@H](CCc2cc(F)c(C(F)(F)F)c(F)c2)NC(=O)CN(C)C(=O)[C@H](Cc2ccc(C(F)(F)F)cc2)N2CC/C=C\C[C@@H](C2=O)N(C)C(=O)CN(C)C1=O` [PP1148], in assay [1] (setting [5]), the “NRAS/KRAS (ratio of KD value with respect to NRAS to KD value with respect to KRAS)” value was “A (a compound having 10 or more and less than 20 is denoted as A)”. Moreover, the “HRAS/KRAS (ratio of KD value with respect to HRAS to KD value with respect to KRAS)” value in assay [2] (setting [6]) was “A (a compound having 10 or more and less than 20 is denoted as A)”.
Consider `CCCN1C(=O)CN(C)C(=O)CN(C)C(=O)[C@H]([C@@H](C)CC)NC(=O)[C@H](CC(C)C)N(C)C(=O)C[C@@H](C(=O)N2CCOCC2)N(C)C(=O)[C@H](C2CCCC2)N(C)C(=O)C2(CCCC2)NC(=O)[C@@H]2COCCN2C(=O)[C@H](CCc2ccc(C(F)(F)F)c(Cl)c2)NC(=O)CN(C)C(=O)[C@@H]1Cc1ccc(C(F)(F)F)cc1` [PP0265] ([NMeL]I[Sar][Sar][NPrPhe(4-CF3)][Sar][hPhe(3-Cl-4-CF3)][Morpholine(3S-CO)][Ac5c][NMeGly(cPent)][NMeD]-Morpholide; lactam N-11), for which the “NRAS/KRAS (ratio of KD for GDP-bound NRAS wild-type to KD for KRAS)” value in assay [1] (KD ratio NRAS/KRAS) is “B (a compound having 3 or more and less than 10 is denoted as B)”. Besides, in assay [2] (KD ratio HRAS/KRAS), the “HRAS/KRAS (ratio of KD for GDP-bound HRAS wild-type to KD for KRAS)” value was “C (A compound having a KD ratio of 0.1 or more and less than 3 is denoted as C)”.
For `CCO[C@@H]1C[C@H]2C(=O)NC3(CC(C)(C)C3)C(=O)N(C)[C@@H](C3CCCC3)C(=O)N(C)[C@H](C(=O)N(C)CC)CC(=O)N(C)[C@@H](COC)C(=O)N[C@@H]([C@@H](C)CC)C(=O)N(C)CC(=O)N(C)[C@H]3C/C=C\CCN(C3=O)[C@@H](Cc3ccc(C(F)(F)F)cc3)C(=O)N(C)CC(=O)N[C@@H](CCc3cc(F)c(C(F)(F)F)c(F)c3)C(=O)N2C1` [PP1671], the “NRAS/KRAS (ratio of KD value for NRAS to KD value for KRAS)” value in assay [1] (setting [5]) is “A (a compound having 10 or more and less than 20 is denoted as A)”. For the same compound, the “HRAS/KRAS (ratio of KD value for HRAS to KD value for KRAS)” value in assay [2] (setting [6]) is “A (a compound having 10 or more and less than 20 is denoted as A)”.
On to `CCO[C@@H]1C[C@H]2C(=O)NC3(CC(C)(C)C3)C(=O)N(C)[C@@H](C3CCCC3)C(=O)N(C)[C@H](C(=O)N(C)CC)CC(=O)N(C)[C@@H](COC)C(=O)N[C@@H]([C@@H](C)CC)C(=O)N(C)CC(=O)N(C)[C@H]3C/C=C\CCN(C3=O)[C@@H](Cc3ccc(C)cc3)C(=O)N(C)CC(=O)N[C@@H](CCc3ccc(C(F)(F)F)c(OC)c3)C(=O)N2C1` [PP2392], for which, in assay [1] (setting [3]), the “NRAS/KRAS (ratio of KD value with respect to NRAS to KD value with respect to KRAS)” value was “A (a compound having 10 or more and less than 20 is denoted as A)”. Besides, in assay [2] (setting [4]), the “HRAS/KRAS (ratio of KD value with respect to HRAS to KD value with respect to KRAS)” value was “A (a compound having 10 or more and less than 20 is denoted as A)”.
